Source: patent US4387105A, “Methods of treating atherosclerosis with dialkylureas and dialkylthioureas” (priority 1982, dated 1983)

Columns and labels:
cholesterol absorption [1] = assay: Inhibition of cholesterol absorption in cholesterol/cholic acid fed rats given [4-14C] cholesterol by gavage (fecal 14C sterols); format: in vivo, male Sprague-Dawley rats; parameters: key: Active: A compound is considered active in inhibiting cholesterol absorption if it meets at least the first two criteria; conditions: 0.01% to 0.1% of the diet for 2 weeks; [4-14C] cholesterol plus 2 mg. test compound by gavage after 9 days; feces collected 5 days
Protocol: Inhibition of cholesterol absorption also was determined by feeding male Sprague-Dawley rats, weighing 150-170 g., a 1% cholesterol:0.5% cholic acid diet for 2 weeks. The diet also contained compounds being tested at doses of between 0.01% and 0.1% of the diet. After the rats had been on the test diet for 9 days each rat is given by gavage a sonicated mixture of [4-^14 C] cholesterol (6μCi), 0.2 ml. triolein, 10 mg. cholic acid, 20 mg. cholesterol and 2 mg. of test compound in 0.8 ml. of 10% non-fat dry milk. Feces were collected for each 24 hour period for the remaining 5 days during which the rats were maintained on the 1% cholesterol:0.5% cholic acid plus test compound diet. Fecal ^14 C-neutral sterols were extracted with petroleum ether from saponified feces by the method of Grundy, S. M., et al., J. Lipid Res., 6, 397 (1965) and counted in a scintillation counter. Acidic sterols (bile acids) were extracted by acidifying the saponified feces and extracting in chloroform:methanol (2:1) and counting the chloroform phase in a scintillation counter. Total extraction of radioactivity (98-100%) from saponified feces is realized by this procedure.
Radioactivity in liver and adrenals were determined by saponification and extraction into petroleum ether and counting by scintillation techniques. Total cholesterol in liver and adrenals was determined by the cholorimetric melthod of Zlatkis, A., et al., J. Lab. Clin. Med., 41, 486 (1953) on saponified-organic solvent extracted tissue prepared by the method of Trinder, P., Analyst, 77, 321 (1952). Serum cholesterol and triglycerides were assayed enzymaticaly by the method of Allain, C. C., et al., Clin. Chem., 20, 470 (1974) on a Centrifichem 400 Analyzer. ^14 C-Cholesterol in serum was determined by direct scintillation counting.
The effect of test compounds on cholesterol absorption was determined by:
1. increase in excreted ^14 C-neutral sterol
2. decrease in excreted ^14 C-acidic sterol
3. decrease in ^14 C-cholesterol or ^14 C-cholesteryl ester in the liver
4. decrease in ^14 C-cholesterol or ^14 C-cholesteryl ester in the serum. […]

cholesterol absorption [2] = conditions: po, 0.03 % of diet, 336 h
Protocol: Inhibition of cholesterol absorption was determined by feeding male Sprague-Dawley rats, weighing 150-170 g., a 1% cholesterol:0.5% cholic acid diet for 2 weeks. The diet also contained compounds being tested at a dose of 0.03% of the diet. Control rats were fed the same diet without any compound. At the end of the test the rats were sacrificed by decapitation. […] Livers are removed, a 0.4 g sample is taken from the center of the large lobe, and the sample is subjected to saponification using 25% saturated potassium hydroxide in ethanol. The resulting neutral sterols are extracted with petroleum ether and extract analyzed for cholesterol. The effectiveness of the compound in inhibiting cholesterol absorption is measured by the lowering of either serum cholesterol or liver cholesterol relative the values for control rats.

[3] = biological target: T1, fatty acyl CoA:cholesterol acyl transferase (ACAT) (Rattus norvegicus, UniProt O70536); assay: Inhibition of ACAT in rat adrenal microsomal supernatant (14C-oleoyl CoA, cholesteryl ester counted); format: biochemical; parameters: dose or concentration left out as unconfirmed; conditions: vs control without compound
T1 construct: The supernatant, containing the microsomal fraction, served as the source of the cholesterol-esterifying enzyme; from tissue; host or cells: rat adrenals (1000 x g supernatant containing the microsomal fraction)
T1 sequence (O70536 1-545): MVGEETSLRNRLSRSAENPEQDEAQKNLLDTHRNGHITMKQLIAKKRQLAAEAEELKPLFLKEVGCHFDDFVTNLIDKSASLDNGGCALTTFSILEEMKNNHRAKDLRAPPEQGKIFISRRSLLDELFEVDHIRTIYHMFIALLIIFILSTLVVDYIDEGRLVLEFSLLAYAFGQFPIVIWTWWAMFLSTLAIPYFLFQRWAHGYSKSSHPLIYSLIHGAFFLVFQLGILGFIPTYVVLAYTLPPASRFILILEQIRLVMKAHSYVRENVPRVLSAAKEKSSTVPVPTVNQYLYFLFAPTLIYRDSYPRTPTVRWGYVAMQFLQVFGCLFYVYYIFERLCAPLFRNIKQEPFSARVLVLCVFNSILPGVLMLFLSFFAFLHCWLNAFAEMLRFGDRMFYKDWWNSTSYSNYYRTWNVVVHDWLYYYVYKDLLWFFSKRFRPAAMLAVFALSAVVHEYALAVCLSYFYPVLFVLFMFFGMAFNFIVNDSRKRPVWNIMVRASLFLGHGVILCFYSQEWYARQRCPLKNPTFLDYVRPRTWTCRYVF
Protocol: The compounds of the present invention were assayed for two types of biological activity related to their potential use as antiatherosclerotic agents. Compounds were tested in vitro for the ability to inhibit the enzyme fatty acyl CoA:cholesterol acyl transferase (ACAT) and in vivo for serum hypolipidemic activity as measured by their ability to inhibit lipid absorption in rats. The compounds were tested for their ability to inhibit ACAT according to the following procedure:
Rat adrenals were homogenized in 0.2 M monobasic potassium phosphate buffer, pH 7.4, and centrifuged at 1000 times gravity for 15 minutes at 5° C. The supernatant, containing the microsomal fraction, served as the source of the cholesterol-esterifying enzyme, fatty acyl CoA:cholesterol acyl transferase (ACAT). A mixture comprising 50 parts of adrenal supernatant, 10 parts of albumin (BSA) (50 mg./ml.), 3 parts of test compound (final concentration […].) and 500 parts of buffer was preincubated at 37° C. for 10 minutes. After treatment with 20 parts of oleoyl CoA(^14 C-[…]) the mixture was incubated at 37° C. for 10 minutes. A control mixture, omitting the test compound, was prepared and treated in the same manner. The lipids from the incubation mixture were extracted into an organic solvent and separated by thin-layer chromatography. The cholesteryl ester fraction was counted in a scintillation counter. This procedure is a modification of that described by Hashimoto, et al., Life Scie., 12 (Part II), 1-12 (1973).

% Inhibition [3]	Compound	Result (inhibition of cholesterol absorption: increase in excreted 14C-neutral sterol and decrease in excreted 14C-acidic sterol) (cholesterol absorption [1])	Result (inhibition of cholesterol absorption: lowering of either serum cholesterol or liver cholesterol relative to control rats) (cholesterol absorption [2])
81.1%	CCCCN(CCCC)C(=O)Nc1ccc(C)cc1C [1,1-Di-(n-butyl)-3-(2,4-dimethylphenyl)urea]	Active	Active
95.1%	CCCCCCN(CCCCCC)C(=O)Nc1ccc(C)cc1C [1,1-Di-(n-hexyl)-3-(2,4-dimethylphenyl)urea]	Active	Active
88.7%	Cc1ccc(NC(=O)N(CCC(C)C)CCC(C)C)c(C)c1 [1,1-Di-(n-isopentyl)-3-(2,4-dimethylphenyl)urea]	–	Active
88.6%	CCCCCCCCN(CCCCCCCC)C(=O)Nc1ccc(C)cc1C [1,1-Di-(n-octyl)-3-(2,4-dimethylphenyl)urea]	–	Active
93.5%	CCCCc1ccc(NC(=O)N(CCCC)CCCC)cc1 [1,1-di-(n-butyl)-3-(4-n-butylphenyl)urea, 1,1-Di-(n-butyl)-3-(4-n-butylphenyl)urea]	–	Active

The next lines start with the compound.

Compound	% Inhibition [3]	Result (inhibition of cholesterol absorption: increase in excreted 14C-neutral sterol and decrease in excreted 14C-acidic sterol) (cholesterol absorption [1])	Result (inhibition of cholesterol absorption: lowering of either serum cholesterol or liver cholesterol relative to control rats) (cholesterol absorption [2])
CCCCCCCCCCN(CCCCCCCCCC)C(=O)Nc1ccc(C)cc1C [1,1-Di-(n-decyl)-3-(2,4-dimethylphenyl)urea]	64.0%	–	Active
CCCCCN(CCCCC)C(=O)Nc1ccc(C)cc1C [1,1-Di-(n-pentyl)-3-(2,4-dimethylphenyl)urea]	90.3%	Active	Active
Cc1ccc(NC(=O)N(CCC(C)CC(C)(C)C)CCC(C)CC(C)(C)C)c(C)c1 (stereo not drawn) [1,1-di-(3,5,5-trimethylhexyl)-3-(2,4-dimethylphenyl)urea]	90.4%	–	Active
CCCCN(CCCC)C(=O)Nc1ccccc1C [1,1-di-(n-butyl)-3-(2-methylphenyl)urea, 1,1-Di-(n-butyl)-3-(2-methylphenyl)urea]	61.8%	–	Active
